Measured values reported in patent US20220282325A1, “METHYLATION ASSAYS AND USES THEREOF” (The General Hospital Corporation, priority 2019, published 2022).

Key:
[1] = test system: OCI-AML3 cells; experiment: XRBS DNA methylation profiling of decitabine-treated cells; assay type: cell-based, human; settings: OCI-AML3, 300 nM decitabine, five days, vs DMSO
Protocol: (§1) In order to detect differential methylation across an isogenic system, cell lines were treated with 300 nM decitabine, which inhibits DNA methyltransferase enzymes through covalent entrapment on DNA (FIGS. 22A and 22B). HL-60 and OCI-AML3 were treated, as these had intermediate global methylation levels among the four cell lines examined, and profiled DNA methylation using expanded representation bisulfite sequencing (XRBS) (FIG. 22C).
(§2) For expanded representation bisulfite sequencing (XRBS) profiles, HL-60 and OCI-AML3 cells were treated with 300 nM decitabine in 6 well plates. Cells were harvested after 5 days and gDNA was extracted using Qiagen DNA Mini Blood Kit (51104). 10 ng of gDNA were used for each library preparation.
(§3) Before alignment, primer dimers were filtered using Cutadapt version 2.7 and the following parameters:--discard -a GCTCTTCCGATCT. Short read pairs were trimmed using TrimGalore version 0.6.5 and the following parameters: --paired --illumina --nextseq 20. Trimmed sequencing reads were then aligned to an in-silico bisulfate-converted reference genome (hg38 and mm10) using methylCtools version 1.0.0 and bwa mem version 0.7.17. […] Putative PCR duplicates were removed by considering the outer mapping position of both paired-end reads, as well as the random hexamer sequence that was trimmed prior to alignment and functioned as a unique molecular identifier (UMI). For library complexity analysis, alignments were downsampled prior to this step. DNA methylation calling was performed using methylCtools bcall and the --trimPE parameter. DNA methylation values, which are incorporated herein by reference for all purposes, were deposited on GEO (GSE149954, token: azujmeaezxqdxgr).
(§4) All downstream analyses were performed in R (version 3.6.2), making extensive use of the data.table and GenomicRanges packages. For many analyses, average DNA methylation values within genomic regions were used. Regions included CpG islands, promoters (1 kb up- and downstream of all transcription start sites of protein-coding genes), enhancers and CTCF binding sites (Encyclopedia of DNA Elements (ENCODE) narrowPeak files), and genomic 100 kb-windows. Average methylation values within these regions were calculated by summarizing calls for methylated and unmethylated CpGs across the entire region, and then calculating a single beta-value. For 100 kb-windows, CpGs within islands were not included. Minimum coverage thresholds were applied as indicated. Similarly, average methylation values were calculated for each genomic bin when visualized as heatmaps (genomic regions were separated in 100 equally-sized bins). Differential DNA methylation analysis was performed by sorting regions according to their difference in average methylation values (for enhancers and CTCF binding sites) or by applying a threshold (0.5) on the difference between the average methylation values of one cell line to the average of the other three cell lines (for promoters).

[2] = test system: HL-60 cells; experiment: as above; assay type: cell-based, human; settings: HL-60, 300 nM decitabine, five days
Protocol: as §1, §2, §3, §4

Nc1ncn([C@H]2C[C@H](O)[C@@H](CO)O2)c(=O)n1 [decitabine]
decrease of DNA methylation levels in CpG islands [1]: 11.2% | decrease of DNA methylation levels in non-island CpGs [1]: 14.0% | reduction of average global methylation levels [1]: 13.7% | decrease of DNA methylation levels in CpG islands ([2]; vs DMSO): 9.5% | decrease of DNA methylation levels in non-island CpGs ([2]; vs DMSO): 20.2% | reduction of average global methylation levels ([2]; vs DMSO): 19.1% | average methylation of non-island CpGs after decitabine treatment ([2]; DMSO control 68.1%): 54.3%
